Data on 29 compounds can be found in patent US9290451B2 (Hoffmann-La Roche Inc., priority 2011, dated 2016).

In one assay the target is human CB2 receptors (Homo sapiens (Human), UniProt P34972). Put plainly: cAMP assay, CHO cells expressing human CB2 receptors. The settings on record: CHO cells expressing human CB2, cAMP; read-out: human CB2 EC50. It counts as cell-based. The essentials:
(§1)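 Read-out is TR-FRET (excitation 355 nm, emission 730/645 nm) after cell lysis, with cAMP content taken from a standard curve and EC50 calculated. Cells were pretreated with 1 mM IBMX in Krebs Ringer bicarbonate buffer, then incubated with compounds for 30 min at 30 °C.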
(cAMP levels reflect the balance of adenylyl cyclase and phosphodiesterase activity.)

For a further assay, the target named is human CB1 receptors (Homo sapiens (Human), UniProt P21554). Put plainly: cAMP assay, CHO cells expressing human CB1 receptors. It counts as cell-based. The settings on record: CHO cells expressing human CB1, cAMP; read-out: human CB1 EC50. In short, it runs like this: as §1
human CB1 receptors, sequence (P21554 whole entry): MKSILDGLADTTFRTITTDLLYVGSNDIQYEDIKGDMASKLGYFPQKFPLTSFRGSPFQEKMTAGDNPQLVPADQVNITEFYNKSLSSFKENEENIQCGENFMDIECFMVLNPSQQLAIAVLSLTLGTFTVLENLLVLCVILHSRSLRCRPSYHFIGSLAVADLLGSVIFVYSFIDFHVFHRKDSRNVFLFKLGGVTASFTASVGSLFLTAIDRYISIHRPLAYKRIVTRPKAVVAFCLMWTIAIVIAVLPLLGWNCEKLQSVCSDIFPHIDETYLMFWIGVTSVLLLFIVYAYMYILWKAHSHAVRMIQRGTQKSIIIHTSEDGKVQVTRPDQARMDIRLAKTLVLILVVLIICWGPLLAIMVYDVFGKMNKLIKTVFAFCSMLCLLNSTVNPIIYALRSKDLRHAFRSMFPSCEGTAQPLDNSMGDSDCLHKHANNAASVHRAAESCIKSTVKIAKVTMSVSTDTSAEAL

human CB2 receptors, sequence (P34972 whole entry): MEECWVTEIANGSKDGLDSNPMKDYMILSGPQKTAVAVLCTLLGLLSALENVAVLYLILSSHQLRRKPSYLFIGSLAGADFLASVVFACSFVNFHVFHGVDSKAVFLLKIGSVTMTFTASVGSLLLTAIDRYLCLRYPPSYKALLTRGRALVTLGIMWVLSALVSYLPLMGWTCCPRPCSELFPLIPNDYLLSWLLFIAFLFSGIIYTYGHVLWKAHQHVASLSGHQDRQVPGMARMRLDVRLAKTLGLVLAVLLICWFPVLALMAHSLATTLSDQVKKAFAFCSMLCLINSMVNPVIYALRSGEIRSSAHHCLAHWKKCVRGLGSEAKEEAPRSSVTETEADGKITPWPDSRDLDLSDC

As to `CNC(=O)[C@@H](NC(=O)c1ccc(C2CC2)c(OCC2CCOCC2)n1)C(C)(C)C` [Example 195, (S)-5-Cyclopropyl-N-(3,3-dimethyl-1-(methylamino)-1-oxobutan-2-yl)-6-((tetrahydro-2H-pyran-4-yl)methoxy)picolinamide], the EC50 (in general, the concentration at which the effect is half-maximal) at human CB2 receptors was determined as 1.4 nM; on human CB1 receptors, 0.206 µM.

For `CNC(=O)[C@H](CC(C)(C)C)NC(=O)c1ccc(C2CC2)c(OCC2CCOCC2)n1` [Example 196, (S)-5-Cyclopropyl-N-(4,4-dimethyl-1-(methylamino)-1-oxopentan-2-yl)-6-((tetrahydro-2H-pyran-4-yl)methoxy)picolinamide], the EC50 on human CB2 receptors was 10.3 nM; at human CB1 receptors, over 10 µM.

As for `Cc1nc([C@H](NC(=O)c2ccc(C3CC3)c(OCC3CC3)n2)C2CC2)no1` [Example 197, (−)-5-Cyclopropyl-6-cyclopropylmethoxy-pyridine-2-carboxylic acid [cyclopropyl-(5-methyl-[1,2,4]oxadiazol-3-yl)-methyl]-amide], the EC50 is 33.2 nM on human CB2 receptors and over 10 µM at human CB1 receptors.

With `Cc1nc([C@@H](NC(=O)c2ccc(C3CC3)c(OCC3CC3)n2)C2CC2)no1` [Example 198, (+)-5-Cyclopropyl-6-cyclopropylmethoxy-pyridine-2-carboxylic acid [cyclopropyl-(5-methyl-[1,2,4]oxadiazol-3-yl)-methyl]-amide], the values for the EC50 on human CB2 receptors and at human CB1 receptors were 6.8 nM and over 10 µM, respectively.

In the case of `Cc1nc(C(C)(C)NC(=O)c2ccc(C3CC3)c(OCc3ccccn3)n2)no1` [Example 199, 5-Cyclopropyl-N-(2-(5-methyl-1,2,4-oxadiazol-3-yl)propan-2-yl)-6-(pyridin-2-ylmethoxy)picolinamide], the EC50 at human CB2 receptors was 151 nM; at human CB1 receptors, over 10 µM.

With `CC(C)C[C@H](NC(=O)c1ccc(C2CC2)c(OCc2ccccn2)n1)C(N)=O` [Example 200, (S)-N-(1-Amino-4-methyl-1-oxopentan-2-yl)-5-cyclopropyl-6-(pyridin-2-ylmethoxy)picolinamide], the 50% effective concentration (EC50) was 23.3 nM on human CB2 receptors and over 10 µM on human CB1 receptors.

As for `CNC(=O)[C@@H](NC(=O)c1ccc(C2CC2)c(OCc2ccccn2)n1)C(C)(C)C` [Example 201, (S)-5-Cyclopropyl-N-(3,3-dimethyl-1-(methylamino)-1-oxobutan-2-yl)-6-(pyridin-2-ylmethoxy)picolinamide], the EC50 on human CB2 receptors was 26.7 nM; at human CB1 receptors it was over 10 µM.

Consider `Cc1nc(C(C)(C)NC(=O)c2ccc(C3CC3)c(OCC3CCOCC3)n2)no1` [Example 202, 5-Cyclopropyl-N-(2-(5-methyl-1,2,4-oxadiazol-3-yl)propan-2-yl)-6-((tetrahydro-2H-pyran-4-yl)methoxy)picolinamide], for which the results for the concentration for a half-maximal effect (EC50) at human CB2 receptors and at human CB1 receptors were 23.6 nM and 0.615 µM, respectively.

Consider `CNC(=O)[C@H](CC(C)C)NC(=O)c1ccc(C2CC2)c(OCC2CCOCC2)n1` [Example 203, (S)-5-Cyclopropyl-N-(4-methyl-1-(methylamino)-1-oxopentan-2-yl)-6-((tetrahydro-2H-pyran-4-yl)methoxy)picolinamide], for which the EC50 was 2.7 nM on human CB2 receptors and 0.0749 µM on human CB1 receptors.

As for `CNC(=O)[C@@H](NC(=O)c1cccc(-c2ccccc2)n1)C(C)(C)C` [Example 204, (S)-N-(3,3-Dimethyl-1-(methylamino)-1-oxobutan-2-yl)-6-phenylpicolinamide], the EC50 was determined as 13.2 nM on human CB2 receptors and 0.737 µM at human CB1 receptors.

Take `CNC(=O)[C@H](CC(C)C)NC(=O)c1cccc(-c2ccccc2)n1` [Example 205, (S)-N-(4-Methyl-1-(methylamino)-1-oxopentan-2-yl)-6-phenylpicolinamide]: the EC50 on human CB2 receptors was 57.8 nM; on human CB1 receptors, over 10 µM.

As to `CNC(=O)[C@@H](NC(=O)c1ccc(N2CC(F)(F)C2)c(OCC2CCCO2)n1)C(C)(C)C` (stereo partly drawn) [Example 206, 5-(3,3-Difluoroazetidin-1-yl)-N-((S)-3,3-dimethyl-1-(methylamino)-1-oxobutan-2-yl)-6-((tetrahydrofuran-2-yl)methoxy)picolinamide], the EC50 at human CB2 receptors was 25 nM; at human CB1 receptors, over 10 µM.

Consider `CCC(CC)(NC(=O)c1ccc(N2CC(F)(F)C2)c(OCC2CC2)n1)C(=O)O` [Example 207, 2-(6-(Cyclopropylmethoxy)-5-(3,3-difluoroazetidin-1-yl)picolinamido)-2-ethylbutanoic acid], for which the EC50 was 14.4 nM on human CB2 receptors and over 10 µM on human CB1 receptors.

With `CNC(=O)[C@@H](NC(=O)c1ccc(N2CC(F)(F)C2)c(OCC2CC2)n1)C(C)(C)C` [Example 208, (S)-6-(Cyclopropylmethoxy)-5-(3,3-difluoroazetidin-1-yl)-N-(3,3-dimethyl-1-(methylamino)-1-oxobutan-2-yl)picolinamide], the values for the EC50 on human CB2 receptors and at human CB1 receptors were 8.9 nM and over 10 µM, respectively.

On to `CNC(=O)[C@H](CC(C)(C)C)NC(=O)c1ccc(N2CC(F)(F)C2)c(OCC2CC2)n1` [Example 209, (S)-6-(Cyclopropylmethoxy)-5-(3,3-difluoroazetidin-1-yl)-N-(4,4-dimethyl-1-(methylamino)-1-oxopentan-2-yl)picolinamide], for which the values for the EC50 on human CB2 receptors and at human CB1 receptors were 2.5 nM and over 10 µM, respectively.

`CNC(=O)[C@H](CC(C)C)NC(=O)c1cccc(-c2cccc(F)c2)n1` [Example 210, (S)-6-(3-Fluorophenyl)-N-(4-methyl-1-(methylamino)-1-oxopentan-2-yl)picolinamide]: the EC50 on human CB2 receptors was 62 nM; at human CB1 receptors it was over 10 µM.

Consider `CNC(=O)[C@H](CC(C)C)NC(=O)c1cccc(-c2cccc(C(F)(F)F)c2)n1` [Example 211, (S)-N-(4-Methyl-1-(methylamino)-1-oxopentan-2-yl)-6-(3-(trifluoromethyl)phenyl)picolinamide], for which the EC50 is 57.1 nM on human CB2 receptors and over 10 µM on human CB1 receptors.

`CNC(=O)[C@H](CC(C)C)NC(=O)c1cccc(-c2ccc(F)c(Cl)c2)n1` [Example 212, (S)-6-(3-Chloro-4-fluorophenyl)-N-(4-methyl-1-(methylamino)-1-oxopentan-2-yl)picolinamide]: the EC50 on human CB2 receptors is 13.4 nM; at human CB1 receptors it was over 10 µM.

On to `CNC(=O)[C@@H](NC(=O)c1cccc(-c2cccc(F)c2)n1)C(C)(C)C` [Example 213, (S)-N-(3,3-Dimethyl-1-(methylamino)-1-oxobutan-2-yl)-6-(3-fluorophenyl)picolinamide], for which the EC50 on human CB2 receptors turned out to be 12.8 nM; at human CB1 receptors, 0.361 µM.

Regarding `CNC(=O)[C@@H](NC(=O)c1cccc(-c2cccc(C(F)(F)F)c2)n1)C(C)(C)C` [Example 214, (S)-N-(3,3-Dimethyl-1-(methylamino)-1-oxobutan-2-yl)-6-(3-(trifluoromethyl)phenyl)-picolinamide], the EC50 was determined as 53.7 nM on human CB2 receptors and 1.63 µM at human CB1 receptors.

Consider `CNC(=O)[C@@H](NC(=O)c1cccc(-c2cccc(OC)c2)n1)C(C)(C)C` [Example 215, (S)-N-(3,3-Dimethyl-1-(methylamino)-1-oxobutan-2-yl)-6-(3-methoxyphenyl) picolinamide], for which the results for the EC50 on human CB2 receptors and at human CB1 receptors were 125 nM and over 10 µM, respectively.

Regarding `CNC(=O)[C@@H](NC(=O)c1cccc(-c2ccc(F)c(Cl)c2)n1)C(C)(C)C` [Example 216, (S)-6-(3-Chloro-4-fluorophenyl)-N-(3,3-dimethyl-1-(methylamino)-1-oxobutan-2-yl)picolinamide], the figures for the EC50 at human CB2 receptors and on human CB1 receptors were 2.7 nM and 0.116 µM, respectively.

Take `O=C(N[C@@H](c1cccnc1)C(F)(F)F)c1ccc(C2CC2)c(OCC2CC2)n1` [Example 217, (S)-5-Cyclopropyl-6-(cyclopropylmethoxy)-N-(2,2,2-trifluoro-1-(pyridin-3-yl)ethyl)-picolinamide]: the EC50 at human CB2 receptors is 41.1 nM; at human CB1 receptors, over 10 µM.

For `O=C(N[C@H](c1cccnc1)C(F)(F)F)c1ccc(C2CC2)c(OCC2CC2)n1` [Example 218, (R)-5-Cyclopropyl-6-(cyclopropylmethoxy)-N-(2,2,2-trifluoro-1-(pyridin-3-yl)ethyl)-picolinamide], the EC50 on human CB2 receptors is 24.1 nM; on human CB1 receptors, over 10 µM.

As to `Cc1nc(C(NC(=O)c2ccc(C3CC3)c(OCC3CCOCC3)n2)C2CC2)no1` (stereo not shown) [Example 219, 5-Cyclopropyl-6-(tetrahydro-pyran-4-ylmethoxy)-pyridine-2-carboxylic acid [cyclopropyl-(5-methyl-[1,2,4]oxadiazol-3-yl)-methyl]-amide], the EC50 came out at 10.8 nM on human CB2 receptors and 2.14 µM at human CB1 receptors.

`CCC(CC)(NC(=O)c1ccc(N(CC(F)(F)F)CC(F)(F)F)c(OCC2CC2)n1)C(=O)OC` [Example 220, 2-({5-[Bis-(2,2,2-trifluoro-ethyl)-amino]-6-cyclopropylmethoxy-pyridine-2-carbonyl}-amino)-2-ethyl-butyric acid methyl ester]: the EC50 at human CB2 receptors was determined as 1.6 nM; on human CB1 receptors, 0.129 µM.

Turning to `Cc1nc(C(NC(=O)c2ccc(N3CC(F)(F)C3)c(OCC3CC3)n2)C2CC2)no1` (stereo not shown) [Example 221, 6-Cyclopropylmethoxy-5-(3,3-difluoro-azetidin-1-yl)-pyridine-2-carboxylic acid [cyclopropyl-(5-methyl-[1,2,4]oxadiazol-3-yl)-methyl]-amide], the EC50 stood at 12.8 nM at human CB2 receptors and 10 µM on human CB1 receptors.

For the compound `CN(C)C(=O)[C@H](CC1CC1)NC(=O)c1ccc(C2CC2)c(OCC2CC2)n1` [Example 222, 5-Cyclopropyl-6-cyclopropylmethoxy-pyridine-2-carboxylic acid ((S)-2-cyclopropyl-1-dimethylcarbamoyl-ethyl)-amide], the EC50 at human CB2 receptors was 3.2 nM; at human CB1 receptors, over 10 µM.

As to `O=C(NC(c1ccccn1)C(F)(F)F)c1ccc(C2CC2)c(OCC2CCOCC2)n1` (stereo not shown) [Example 223, 5-Cyclopropyl-6-(tetrahydro-pyran-4-ylmethoxy)-pyridine-2-carboxylic acid (2,2,2-trifluoro-1-pyridin-2-yl-ethyl)-amide], the results for the EC50 on human CB2 receptors and on human CB1 receptors were 10.9 nM and 0.655 µM, respectively.
